Tested on: mice
Assay: Screening drugs with macrophage/monocyte depletion capability for enhanced mRNA delivery (Fluc expression, MC3-LNP)
Assay type: in vivo
Settings: Fluc mRNA 0.2 mg/kg
Procedure: FIGS. 6A-6B. Luciferase expression of pretreated mice injected with MC3-LNP loaded with Fluc mRNA (0.2 mg/kg).
In this example, various small molecules or monoclonal antibodies with reported macrophage depletion capabilities were screened to evaluate the effectiveness to enhance mRNA delivery. Drugs used in this study include clodronate liposome (Lipo-Clodronate), anti-CD115, anti-CCR2, anti-Ly6C, anti-Gr-1 and zoledronate (10 μg, 50 μg and 100 μg).
FIG. 5 lists treatment methods studied in this example. […] In a different experiment, zoledronate was encapsulated in liposomes (formulated with DSPC and cholesterol) and delivered to the mouse at different dosage.

O=P(O)(O)C(O)(Cn1ccnc1)P(=O)(O)O [zoledronate]
mRNA delivery / Fluc expression of MC3-LNP in pretreated mice (10 μg of zoledronate): enhanced the mRNA delivery
Fluc expression of MC3-LNP in pretreated mice (high dose of zoledronate): decreased the Fluc expression
